Measurements from article PMC3298571 (Bioorganic & medicinal chemistry, 2012).
“Also recorded” adds a separate entry of the source. Marks after values point to notes of the source that are not given here.

Experiments:
CB1 receptor [1] = molecular target: CB1 receptor (Homo sapiens, UniProt P21554); assay: [35S]GTPγS binding assay; assay type: biochemical
mice [2] = assay: Rimonabant antagonism of tetrad effects in mice; assay type: in vivo, mouse; details: 3 mg/kg rimonabant, 30 mg/kg JWH-415
CB1 receptor [3] = details: read-out: Ki CB1; cited from earlier work
CB2 receptor = details: read-out: Ki CB2; cited from earlier work
Male ICR mice [4] = details: mouse; cited from earlier work
Male ICR mice [5] = details: mouse; cited from earlier work; remark: listed apart in the source
Male ICR mice [6] = details: mouse; cited from earlier work; remark: listed apart in the source
Male ICR mice [7] = details: mouse; cited from earlier work; remark: listed apart in the source
mice [8] = details: cited from earlier work
CB1 receptors = details: [35S]GTPγS binding assay; cited from earlier work
mice [9] = details: cited from earlier work; remark: listed apart in the source

Sequence of CB1 receptor (Homo sapiens, UniProt P21554) (P21554 whole entry): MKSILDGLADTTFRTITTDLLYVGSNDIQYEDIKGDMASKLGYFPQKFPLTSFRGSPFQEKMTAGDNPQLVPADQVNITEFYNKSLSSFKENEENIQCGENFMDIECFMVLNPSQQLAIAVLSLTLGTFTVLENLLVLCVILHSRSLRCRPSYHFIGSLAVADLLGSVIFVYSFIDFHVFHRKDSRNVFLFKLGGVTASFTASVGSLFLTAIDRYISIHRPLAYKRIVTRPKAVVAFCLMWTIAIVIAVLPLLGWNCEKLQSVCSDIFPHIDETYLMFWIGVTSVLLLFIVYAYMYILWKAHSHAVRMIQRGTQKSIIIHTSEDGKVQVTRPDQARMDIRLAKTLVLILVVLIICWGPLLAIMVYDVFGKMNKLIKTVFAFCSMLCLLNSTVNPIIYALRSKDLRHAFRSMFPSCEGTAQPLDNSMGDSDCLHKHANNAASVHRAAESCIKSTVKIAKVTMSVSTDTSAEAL

Row | SMILES | Ki (CB1 receptor [3]) [nM] | Ki (CB2 receptor) [nM] | ED50 TF (Male ICR mice [4]) | ED50 RT (Male ICR mice [5]) | ED50 SA (Male ICR mice [7]) | also measured
1 | CCCn1c(C)c(C(=O)c2ccc(F)c3ccccc23)c2ccccc21 [JWH-415, 2-Methyl-1-propyl-3-(4-fluoro-1-naphthoyl)indole] | – | – | – | – | – | Efficacy at the CB1 receptor (CB1 receptor [1]): low efficacy agonist; Effect of rimonabant on tetrad effects (mice [2]): blocked or partially blocked; also recorded: rimonabant-reversible activity
2 | CCCCCn1c(C)c(C(=O)c2ccc(CC)c3ccccc23)c2ccccc21 [JWH-213] | 1.5 ± 0.2 | 0.42 ± 0.05 | – | – | – | –
3 | CCCn1c(C)c(C(=O)c2cccc3ccccc23)c2ccccc21 [JWH-015, 1-propyl-2-methyl-3-(1-naphthoyl)indole] | – | – | 84.7^e μmol / kg | 99.1^e μmol / kg | 18.7^e μmol / kg | ED50 RI (Male ICR mice [6]): 87.2^e μmol / kg
4 | CCCCCn1cc(C(=O)c2cccc3ccccc23)c2ccccc21 [JWH-018, 1-pentyl-3-(1-naphthoyl)indole] | 9 ± 5 | 2.9 ± 2.6 | 0.09^e μmol / kg | 1.7^e μmol / kg | 0.44^e μmol / kg | –
5 | Cc1c(C(=O)c2cccc3ccccc23)c2cccc3c2n1[C@H](CN1CCOCC1)CO3 [WIN-55,212-2] | – | – | 0.94^c μmol / kg | – | 0.23^c μmol / kg | –
6 | C=C1CC[C@@H]2[C@@H](C1)c1ccc(C(C)(C)CCCCCC)cc1OC2(C)C [JWH-104, deoxy-Δ^9(11)-THC-dimethylheptyl] | 909 | – | – | – | – | Effect of rimonabant on cannabimimetic effects in the battery of mouse tests (mice [8]): blocked by rimonabant; Efficacy at CB1 receptors (CB1 receptors): low efficacy agonist; Substitution for THC in drug discrimination (mice [9]): did not substitute for THC
